Earlier results in patent US6068858A, “Methods of making nanocrystalline formulations of human immunodeficiency virus (HIV) protease inhibitors using cellulosic surface stabilizers” (Elan Pharma International Limited, priority 1999, dated 2000).

System: not given
Details: as reported in literature

| SMILES | oral bioavailability |
| --- | --- |
| N#Cc1ccc(S(=O)(=O)Nc2cccc(C(c3c(O)c4c(oc3=O)CCCCCC4)C3CC3)c2)cc1 (stereo not shown) [U-103,017] | low oral bioavailability |
| CSC[C@H](NC(=O)COc1cccc2cnccc12)C(=O)N[C@@H](Cc1ccccc1)[C@H](O)C(=O)N1CSC[C@H]1C(=O)NC(C)(C)C [KNI-272] | low oral bioavailability |

Same assay, conditions: in vivo, po

| oral bioavailability | SMILES |
| --- | --- |
| low oral bioavailability | Nc1cccc(CN2C(=O)N(Cc3cccc(N)c3)[C@H](Cc3ccccc3)[C@H](O)[C@@H](O)[C@H]2Cc2ccccc2)c1 [DMP-450] |
| low oral bioavailability | CC(C)c1nc(CN(C)C(=O)N[C@H](C(=O)N[C@@H](Cc2ccccc2)C[C@H](O)[C@H](Cc2ccccc2)NC(=O)OCc2cncs2)C(C)C)cs1 [ABT-538] |
| low oral bioavailability | CC(C)(C)NC(=O)[C@@H]1CN(Cc2cccnc2)CCN1C[C@@H](O)C[C@@H](Cc1ccccc1)C(=O)N[C@H]1c2ccccc2C[C@H]1O [MK-639] |
| low oral bioavailability | CC(C)CN(C[C@@H](O)[C@H](Cc1ccccc1)NC(=O)O[C@H]1CCOC1)S(=O)(=O)c1ccc(N)cc1 [VX-478] |
| low oral bioavailability | Cc1c(O)cccc1C(=O)N[C@@H](CSc1ccccc1)[C@H](O)CN1C[C@H]2CCCC[C@H]2C[C@H]1C(=O)NC(C)(C)C [AG1343] |
| low oral bioavailability | CC(C)(C)NC(=O)[C@@H]1C[C@@H]2CCCC[C@@H]2CN1C[C@@H](O)[C@H](Cc1ccccc1)NC(=O)[C@H](CC(N)=O)NC(=O)c1ccc2ccccc2n1 [saquinavir] |

System: HIV RT
Details: background statement

| SMILES | effectiveness in treating HIV infection |
| --- | --- |
| O[C@H](CS)[C@H](O)CS (racemic) [ddT, dithiothreitol] | only modestly effective |
| O=c1[nH]cnc2c1ncn2[C@H]1CC[C@@H](CO)O1 [ddI, didanosine] | only modestly effective |

Same assay, conditions: background statement; interfere with cellular enzymes

| SMILES | side effects |
| --- | --- |
| Cc1cn([C@H]2C[C@H](N=[N+]=[N-])[C@@H](CO)O2)c(=O)[nH]c1=O [AZT, azidothymidine] | severe side effects |
| O[C@H](CS)[C@H](O)CS (racemic) [ddT, dithiothreitol] | severe side effects |
| O=c1[nH]cnc2c1ncn2[C@H]1CC[C@@H](CO)O1 [ddI, didanosine] | severe side effects |
